# Laboratory results reported in ChEMBL document CHEMBL2434921, “New synthetic aliphatic sulfonamido-quaternary ammonium salts as anticancer chemotherapeutic agents” (2013).
# Activity calls are given as the source filed them. No cut-off for these calls is given here.
# Experiments:
# [1] = molecular target: Rho-related GTP-binding protein RhoB (Homo sapiens) (UniProt P62745); experiment: Transactivation of RhoB (unknown origin) transfected in human HeLa cells at 5 uM measured over 10 secs by dual luciferase reporter gene assay; format: cell-based
# ACHN [2] = experiment: Growth inhibition of human ACHN cells after 48 hrs by SRB assay; format: functional
# HCT-15 [3] = experiment: Growth of human HCT15 cells at 3 uM after 48 hrs by SRB assay; settings: HCT-15, 48 h
# NUGC-3 [4] = experiment: Growth of human NUGC3 cells at 0.1 uM after 48 hrs by SRB assay; settings: NUGC-3, 48 h
# ACHN [5] = experiment: Growth of human ACHN cells at 0.3 uM after 48 hrs by SRB assay
# ACHN [6] = experiment: Growth of human ACHN cells at 0.1 uM after 48 hrs by SRB assay
# PC-3 [7] = experiment: Growth inhibition of human PC3 cells after 48 hrs by SRB assay; format: functional; settings: PC-3, 48 h
# MDA-MB-231 [8] = experiment: Growth of human MDA-MB-231 cells at 0.1 uM after 48 hrs by SRB assay; settings: MDA-MB-231, 48 h
# NCI-H23 [9] = experiment: Growth inhibition of human NCI-H23 cells at 3 uM after 48 hrs by SRB assay; values are per cent of control; settings: NCI-H23, 48 h
# HCT-15 [10] = experiment: Growth inhibition of human HCT15 cells at 1 uM after 48 hrs by SRB assay; values are per cent of control; settings: HCT-15, 48 h
# HCT-15 [11] = experiment: Growth inhibition of human HCT15 cells after 48 hrs by SRB assay; format: functional; settings: HCT-15, 48 h
# HCT-15 [12] = experiment: Growth of human HCT15 cells at 0.3 uM after 48 hrs by SRB assay; settings: HCT-15, 48 h
# PC-3 [13] = experiment: Growth inhibition of human PC3 cells at 1 uM after 48 hrs by SRB assay; values are per cent of control; settings: PC-3, 48 h
# NCI-H23 [14] = experiment: Growth inhibition of human NCI-H23 cells at 0.1 uM after 48 hrs by SRB assay; values are per cent of control; settings: NCI-H23, 48 h
# NUGC-3 [15] = experiment: Growth inhibition of human NUGC3 cells after 48 hrs by SRB assay; format: functional; settings: NUGC-3, 48 h
# MDA-MB-231 [16] = experiment: Growth inhibition of human MDA-MB-231 cells at 0.3 uM after 48 hrs by SRB assay; values are per cent of control; settings: MDA-MB-231, 48 h
# NUGC-3 [17] = experiment: Growth of human NUGC3 cells at 1 uM after 48 hrs by SRB assay; settings: NUGC-3, 48 h
# PC-3 [18] = experiment: Growth inhibition of human PC3 cells at 3 uM after 48 hrs by SRB assay; values are per cent of control; settings: PC-3, 48 h
# HCT-15 [19] = experiment: Growth inhibition of human HCT15 cells at 0.1 uM after 48 hrs by SRB assay; values are per cent of control; settings: HCT-15, 48 h
# NCI-H23 [20] = experiment: Growth inhibition of human NCI-H23 cells at 1 uM after 48 hrs by SRB assay; values are per cent of control; settings: NCI-H23, 48 h
# NCI-H23 [21] = experiment: Growth of human NCI-H23 cells at 0.3 uM after 48 hrs by SRB assay; settings: NCI-H23, 48 h
# MDA-MB-231 [22] = experiment: Growth of human MDA-MB-231 cells at 3 uM after 48 hrs by SRB assay; values are per cent of control; settings: MDA-MB-231, 48 h
# HCT-15 [23] = experiment: Growth inhibition of human HCT15 cells at 10 uM after 48 hrs by SRB assay; values are per cent of control; settings: HCT-15, 48 h
# MDA-MB-231 [24] = experiment: Growth of human MDA-MB-231 cells at 1 uM after 48 hrs by SRB assay; settings: MDA-MB-231, 48 h
# ACHN [25] = experiment: Growth inhibition of human ACHN cells at 1 uM after 48 hrs by SRB assay; values are per cent of control
# PC-3 [26] = experiment: Growth inhibition of human PC3 cells at 0.1 uM after 48 hrs by SRB assay; values are per cent of control; settings: PC-3, 48 h
# ACHN [27] = experiment: Growth inhibition of human ACHN cells at 3 uM after 48 hrs by SRB assay; values are per cent of control
# NCI-H23 [28] = experiment: Growth of human NCI-H23 cells at 10 uM after 48 hrs by SRB assay; settings: NCI-H23, 48 h
# ACHN [29] = experiment: Growth of human ACHN cells at 10 uM after 48 hrs by SRB assay
# NUGC-3 [30] = experiment: Growth inhibition of human NUGC3 cells at 3 uM after 48 hrs by SRB assay; values are per cent of control; settings: NUGC-3, 48 h
# PC-3 [31] = experiment: Growth of human PC3 cells at 10 uM after 48 hrs by SRB assay; settings: PC-3, 48 h
# PC-3 [32] = experiment: Growth inhibition of human PC3 cells at 0.3 uM after 48 hrs by SRB assay; values are per cent of control; settings: PC-3, 48 h
# MDA-MB-231 [33] = experiment: Growth of human MDA-MB-231 cells at 10 uM after 48 hrs by SRB assay; settings: MDA-MB-231, 48 h
# NUGC-3 [34] = experiment: Growth of human NUGC3 cells at 0.3 uM after 48 hrs by SRB assay; settings: NUGC-3, 48 h
# MDA-MB-231 [35] = experiment: Growth inhibition of human MDA-MB-231 cells after 48 hrs by SRB assay; format: functional; settings: MDA-MB-231, 48 h
# NCI-H23 [36] = experiment: Growth inhibition of human NCI-H23 cells after 48 hrs by SRB assay; format: functional; settings: NCI-H23, 48 h
# NUGC-3 [37] = experiment: Growth inhibition of human NUGC3 cells at 10 uM after 48 hrs by SRB assay; values are per cent of control; settings: NUGC-3, 48 h
# Chain of Rho-related GTP-binding protein RhoB (Homo sapiens) (P62745 whole entry): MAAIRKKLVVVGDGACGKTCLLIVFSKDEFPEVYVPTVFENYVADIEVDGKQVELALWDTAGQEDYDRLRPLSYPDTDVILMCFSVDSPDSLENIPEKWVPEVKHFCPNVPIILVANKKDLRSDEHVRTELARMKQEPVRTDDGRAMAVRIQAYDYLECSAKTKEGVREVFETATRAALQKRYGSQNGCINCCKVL
Activity [1],GI50 (ACHN [2]),GI50 (PC-3 [7]),GI50 (HCT-15 [11]),Compound,"growth, % of control at 3 µM (HCT-15 [3])","growth, % of control at 0.1 µM (NUGC-3 [4])","growth, % of control at 0.3 µM (ACHN [5])","growth, % of control at 0.1 µM (ACHN [6])","growth, % of control at 0.1 µM (MDA-MB-231 [8])","growth, % of control at 3 µM (NCI-H23 [9])","growth, % of control at 1 µM (HCT-15 [10])","growth, % of control at 0.3 µM (HCT-15 [12])","growth, % of control at 1 µM (PC-3 [13])","growth, % of control at 0.1 µM (NCI-H23 [14])",GI50 (NUGC-3 [15]),"growth, % of control at 0.3 µM (MDA-MB-231 [16])","growth, % of control at 1 µM (NUGC-3 [17])","growth, % of control at 3 µM (PC-3 [18])","growth, % of control at 0.1 µM (HCT-15 [19])","growth, % of control at 1 µM (NCI-H23 [20])",other results
Active,2040 nM,450 nM,940 nM,CCCCCCCCCCCCCCS(=O)(=O)NCCC[N+](C)(C)C [TRIMETHYL-[3-(TETRADECANE-1-SULFONYLAMINO)-PROPYL]-AMMONIUM IODIDE],31.5%,84.4%,88.6%,88%,84.6%,-5.1%,66.5%,91.2%,52.2%,84.7%,380 nM,86.4%,43.1%,9.5%,94.3%,48.4%,"growth, % of control at 0.3 µM (NCI-H23 [21]): 86.5%; growth, % of control at 3 µM (MDA-MB-231 [22]): 45.3%; growth, % of control at 10 µM (HCT-15 [23]): 22%; growth, % of control at 1 µM (MDA-MB-231 [24]): 76.7%; growth, % of control at 1 µM (ACHN [25]): 96.8%; growth, % of control at 0.1 µM (PC-3 [26]): 86.7%; growth, % of control at 3 µM (ACHN [27]): 49.9%; growth, % of control at 10 µM (NCI-H23 [28]): -34.5%; growth, % of control at 10 µM (ACHN [29]): 29.7%; growth, % of control at 3 µM (NUGC-3 [30]): 21.5%; growth, % of control at 10 µM (PC-3 [31]): -7.8%; growth, % of control at 0.3 µM (PC-3 [32]): 80.6%; growth, % of control at 10 µM (MDA-MB-231 [33]): 25.1%; growth, % of control at 0.3 µM (NUGC-3 [34]): 73.2%; GI50 (MDA-MB-231 [35]): 1400 nM; GI50 (NCI-H23 [36]): 460 nM; growth, % of control at 10 µM (NUGC-3 [37]): 5.4%"
Active,1750 nM,570 nM,1260 nM,CCCCCCCCCCCCCCCCS(=O)(=O)N(C)CC[N+](C)(C)CC,35.2%,88%,93.9%,96.2%,75.8%,61.6%,69.7%,98.4%,54.1%,80.8%,360 nM,77.8%,30%,14.2%,101%,84%,"growth, % of control at 0.3 µM (NCI-H23 [21]): 78.3%; growth, % of control at 3 µM (MDA-MB-231 [22]): 36.5%; growth, % of control at 10 µM (HCT-15 [23]): 26.7%; growth, % of control at 1 µM (MDA-MB-231 [24]): 51.9%; growth, % of control at 1 µM (ACHN [25]): 77.8%; growth, % of control at 0.1 µM (PC-3 [26]): 91.4%; growth, % of control at 3 µM (ACHN [27]): 52.7%; growth, % of control at 10 µM (NCI-H23 [28]): 13.5%; growth, % of control at 10 µM (ACHN [29]): 21.5%; growth, % of control at 3 µM (NUGC-3 [30]): 17.2%; growth, % of control at 10 µM (PC-3 [31]): -18.7%; growth, % of control at 0.3 µM (PC-3 [32]): 87.3%; growth, % of control at 10 µM (MDA-MB-231 [33]): -3.8%; growth, % of control at 0.3 µM (NUGC-3 [34]): 81.3%; GI50 (MDA-MB-231 [35]): 540 nM; GI50 (NCI-H23 [36]): 1810 nM; growth, % of control at 10 µM (NUGC-3 [37]): 4%"
Active,1740 nM,820 nM,2350 nM,CCCCCCCCCCCCCCS(=O)(=O)N(C)CC[N+](C)(CC)CC,60.5%,98.7%,102%,100%,103%,16.4%,88.4%,96.3%,79.9%,96.5%,520 nM,101%,45.7%,10.5%,95%,65.4%,"growth, % of control at 0.3 µM (NCI-H23 [21]): 91%; growth, % of control at 3 µM (MDA-MB-231 [22]): 34.3%; growth, % of control at 10 µM (HCT-15 [23]): 27%; growth, % of control at 1 µM (MDA-MB-231 [24]): 81.5%; growth, % of control at 1 µM (ACHN [25]): 87.4%; growth, % of control at 0.1 µM (PC-3 [26]): 114%; growth, % of control at 3 µM (ACHN [27]): 51.7%; growth, % of control at 10 µM (NCI-H23 [28]): -0.5%; growth, % of control at 10 µM (ACHN [29]): 16.4%; growth, % of control at 3 µM (NUGC-3 [30]): 10.6%; growth, % of control at 10 µM (PC-3 [31]): -1.7%; growth, % of control at 0.3 µM (PC-3 [32]): 108%; growth, % of control at 10 µM (MDA-MB-231 [33]): 16.5%; growth, % of control at 0.3 µM (NUGC-3 [34]): 104%; GI50 (MDA-MB-231 [35]): 1220 nM; GI50 (NCI-H23 [36]): 710 nM; growth, % of control at 10 µM (NUGC-3 [37]): 3.1%"
